Measurements taken from patent publication US20240158740A1, “CELL CLUSTER PRODUCTION METHOD” (National University Corporation Tokyo Medical and Dental …, priority 2021, published 2024).

Key:
Format in all cases: cell-based
[1] = tested on: Human iPS cells (625A4) colonies; experiment: Differentiation marker analysis of cell cluster by immunocytostaining after Wnt signal-activating culture step (Day 2)
Experimental: Human iPS cells (625A4; Center for iPS Cell Research and Application (CiRA), Kyoto University) were cultured at 37° C. for 6 to 7 days under 5% CO2 in AK02N (Ajinomoto Co., Inc.) (10 cm dish; 8 ml, 24-well plate; 0.5 ml) to form iPS cell colonies of 500 to 700 μm in diameter. The obtained colonies were cultured at 37° C. for 2 days under 5% CO2 in Essential 8 medium (Gibco) (10 cm dish; 8 ml, 24-well plate; 0.5 ml) supplemented with BMP4 (80 ng/ml), VEGF (80 ng/ml), and CHIR99021 (2 μM) (Days 0 to 2). iPS cell colonies were formed as a control in the same manner as in [1] and [2]. Then, the obtained colonies were cultured at 37° C. for 2 days under 5% CO2 in Essential 8 medium (Gibco) (10 cm dish; 8 ml, 24-well plate; 0.5 ml) supplemented with BMP4 (80 ng/ml) and VEGF (80 ng/ml) (Days 0 to 2). After induction of differentiation in the step of Days 0 to 2 in [1] or [2], the medium was removed, and the cells were washed once with PBS(−) (Gibco). Then, 4% paraformaldehyde was added at a volume of 500 μl/24 wells to the cells and left at room temperature for 15 minutes. Then, the cells were washed three times with PBS(−) and preserved overnight at 4° C. Then, PROTEIN BLOCK SERUM-FREE blocking solution [DAKO, X909] was added at a volume of 500 μl/24 wells to the cells and left at room temperature for 60 minutes for blocking. Then, a primary antibody ( 1/100 Anti-GATA6 (Abcam plc, ab22600), 1/50 Anti-Brachyury T (R&D Systems, Inc., AF2085), 1/400 Anti-Sox2 (CST, 3579P2), 1/100 Anti-CDX2 (R&D Systems, Inc., MAB3665), and 1/50 Anti-AP-2a (Santa Cruz Biotechnology Inc., sc-12726)) against the target antigen was added to a 1% blocking solution in PBS(−). The primary antibody solution was added at a volume of 500 μl/24 wells and left standing at room temperature for 60 minutes or overnight at 4° C. Subsequently, the cells were washed three times with PBS(−). […] The processing of the obtained images and quantitative analysis were carried out using image analysis software “Fiji”.

[2] = tested on: Human iPS cells (625A4) derived cell population; experiment: Differentiation marker analysis of cell population by immunocytostaining (Brachyury, CD34; Day 6); conditions: cell cluster obtained with CHIR99021 2 μM (Days 0 to 2), further differentiated; cell population of Day 6
Experimental: Following the preparation of human yolk sac mesoderm cells in [1], the medium was replaced with Essential 6 medium (Gibco) (10 cm dish; 8 ml) supplemented with VEGF (80 ng/ml), FGF2 (25 ng/ml), SCF (50 ng/ml), and SB431542 (2 μM), and hemangioblasts were induced by further culture at 37° C. for 2 days under 5% CO2. Then, the medium was replaced with Stempro-34 SFM (Gibco) (10 cm dish; 8 ml) supplemented with VEGF (80 ng/ml), SCF (50 ng/ml), Flt-3L (50 ng/ml), IL-3 (50 ng/ml), IL-6 (50 ng/ml), and TPO (5 ng/ml), and the cells were cultured at 37° C. for 2 days under 5% CO2. Then, the medium was replaced with a medium of the composition described above except for VEGF, and CD34-positive and CD32-positive vitelline venous hemogenic endothelial cells were induced by culture at 37° C. for 2 days under 5% CO2. After induction of differentiation of the step of Days 4 to 6 in [4], immunocytostaining was performed by the same procedures as in [3] except that the primary antibody used was changed to 1/50 Anti-CD34 (Abcam plc, ab81289).

[3] = tested on: Human iPS cells (625A4) derived cell population; experiment: Differentiation marker analysis using flow cytometry (CD34, CD32; Day 8); conditions: cell cluster obtained with CHIR99021 2 μM (Days 0 to 2), further differentiated; cell population of Day 8; compared with control (−)
Experimental: Following the preparation of human yolk sac mesoderm cells in [1], the medium was replaced with Essential 6 medium (Gibco) (10 cm dish; 8 ml) supplemented with VEGF (80 ng/ml), FGF2 (25 ng/ml), SCF (50 ng/ml), and SB431542 (2 μM), and hemangioblasts were induced by further culture at 37° C. for 2 days under 5% CO2. Then, the medium was replaced with Stempro-34 SFM (Gibco) (10 cm dish; 8 ml) supplemented with VEGF (80 ng/ml), SCF (50 ng/ml), Flt-3L (50 ng/ml), IL-3 (50 ng/ml), IL-6 (50 ng/ml), and TPO (5 ng/ml), and the cells were cultured at 37° C. for 2 days under 5% CO2. Then, the medium was replaced with a medium of the composition described above except for VEGF, and CD34-positive and CD32-positive vitelline venous hemogenic endothelial cells were induced by culture at 37° C. for 2 days under 5% CO2. After induction of differentiation of vitelline venous hemogenic endothelial cells by the step of Days 6 to 8 in [4], the medium was removed, and the cells were washed twice with PBS(−) (Gibco). Then, TrypLE Express (Gibco) was added at a volume of 3 mL/dish and left at 37° C. for 15 minutes. Then, the cells were recovered into a 15 mL tube while dissociated by pipetting with P1000 micropipette. […] The differentiation markers were analyzed by BD LSRFortessa flow cytometry using the obtained antibody-stained cell suspension. Data obtained from flow cytometry was analyzed using FlowJo.

[4] = tested on: Human iPS cells (625A4) colonies; experiment: Differentiation marker analysis of cell cluster by immunocytostaining after Wnt signal-inhibiting culture step (Day 2); conditions: cell cluster of Day 2
Experimental: Human iPS cells (625A4; Center for iPS Cell Research and Application (CiRA), Kyoto University) were cultured at 37° C. for 6 to 7 days under 5% CO2 in AK02N (Ajinomoto Co., Inc.) (10 cm dish; 8 ml, 24-well plate; 0.5 ml) to form iPS cell colonies of 500 to 700 μm in diameter. The obtained colonies were cultured at 37° C. for 2 days under 5% CO2 in Essential 8 medium (Gibco) (10 cm dish; 8 ml, 24-well plate; 0.5 ml) supplemented with BMP4 (80 ng/ml), VEGF (80 ng/ml), and IWP-2 (2 μM) (Days 0 to 2).
iPS cell colonies were formed as a control in the same manner as in [1] and [2]. Then, the obtained colonies were cultured at 37° C. for 2 days under 5% CO2 in Essential 8 medium (Gibco) (10 cm dish; 8 ml, 24-well plate; 0.5 ml) supplemented with BMP4 (80 ng/ml) and VEGF (80 ng/ml) (Days 0 to 2).
After induction of differentiation in the step of Days 0 to 2 in [1] or [2], the medium was removed, and the cells were washed once with PBS(−) (Gibco). Then, 4% paraformaldehyde was added at a volume of 500 μl/24 wells to the cells and left at room temperature for 15 minutes. Then, the cells were washed three times with PBS(−) and preserved overnight at 4° C. Then, PROTEIN BLOCK SERUM-FREE blocking solution [DAKO, X909] was added at a volume of 500 μl/24 wells to the cells and left at room temperature for 60 minutes for blocking. Then, a primary antibody ( 1/100 Anti-GATA6 (Abcam plc, ab22600), 1/50 Anti-Brachyury T (R&D Systems, Inc., AF2085), 1/400 Anti-Sox2 (CST, 3579P2), 1/100 Anti-CDX2 (R&D Systems, Inc., MAB3665), and 1/50 Anti-AP-2a (Santa Cruz Biotechnology Inc., sc-12726)) against the target antigen was added to a 1% blocking solution in PBS(−). The primary antibody solution was added at a volume of 500 μl/24 wells and left standing at room temperature for 60 minutes or overnight at 4° C. Subsequently, the cells were washed three times with PBS(−). […] The processing of the obtained images and quantitative analysis were carried out using image analysis software “Fiji”.

In the case of `Cc1c[nH]c(-c2cnc(NCCNc3ccc(C#N)cn3)nc2-c2ccc(Cl)cc2Cl)n1` [CHIR99021], the “Enrichment of Brachyury-negative, GATA6-positive, and FOXF1-positive YSMCs in the cell cluster” value ([1]; CHIR99021 2 μM with BMP4 and VEGF in Essential 8, Days 0 to 2, cell cluster of Day 2, compared with no addition (−)) is reported as “enriched”, the “Morphology of the cell cluster under an optical microscope versus cell cluster obtained by a conventional method” value ([1]; CHIR99021 2 μM, 2 days after the start of culture) is reported as “differ morphologically” and the “GATA6 status of the CDX2-negative region (+CHIR)” value ([1]; CHIR99021 2 μM, Days 0 to 2, cell cluster of Day 2) is reported as “GATA6-positive”. For the same molecule, the “Appearance of CD34-positive vascular endothelial progenitor cells from YSM region in the outer edge part” value [2] was “Rich CD34-positive vascular endothelial progenitor cells were confirmed to appear” and the “CD34-positive and CD32-positive vitelline venous hemogenic endothelial cells produced” value [3] was “more”.
With `Cc1ccc2nc(NC(=O)CSc3nc4c(c(=O)n3-c3ccccc3)SCC4)sc2c1` [IWP-2] the “GATA6-positive cells in an outer edge part of the cell cluster” value ([4]; 2 μM, Days 0 to 2, compared with +CHIR) was “small number of GATA6-positive cells”, the “Enrichment of CDX2-positive and TFAP2A-positive AECs in the cell cluster” value ([4]; IWP-2 2 μM with BMP4 and VEGF in Essential 8, Days 0 to 2, compared with no addition (−)) was “enriched” and the “GATA6 status of the CDX2-positive region (+IWP-2)” value ([4]; IWP-2 2 μM, Days 0 to 2) was “GATA6-negative”.
